Counter-ions that a name gives are not always drawn.
Experiments:
[1] = biological target: T1, glycine transporter-2 (GlyT-2) (Homo sapiens, UniProt Q9Y345); experiment: [14C]glycine uptake assay in HEK-GlyT-2 transfected cells; type: cell-based; conditions: HEK-GlyT-2 cells
T1 construct: expressed in transfected cells
T1 sequence (Q9Y345 1-797): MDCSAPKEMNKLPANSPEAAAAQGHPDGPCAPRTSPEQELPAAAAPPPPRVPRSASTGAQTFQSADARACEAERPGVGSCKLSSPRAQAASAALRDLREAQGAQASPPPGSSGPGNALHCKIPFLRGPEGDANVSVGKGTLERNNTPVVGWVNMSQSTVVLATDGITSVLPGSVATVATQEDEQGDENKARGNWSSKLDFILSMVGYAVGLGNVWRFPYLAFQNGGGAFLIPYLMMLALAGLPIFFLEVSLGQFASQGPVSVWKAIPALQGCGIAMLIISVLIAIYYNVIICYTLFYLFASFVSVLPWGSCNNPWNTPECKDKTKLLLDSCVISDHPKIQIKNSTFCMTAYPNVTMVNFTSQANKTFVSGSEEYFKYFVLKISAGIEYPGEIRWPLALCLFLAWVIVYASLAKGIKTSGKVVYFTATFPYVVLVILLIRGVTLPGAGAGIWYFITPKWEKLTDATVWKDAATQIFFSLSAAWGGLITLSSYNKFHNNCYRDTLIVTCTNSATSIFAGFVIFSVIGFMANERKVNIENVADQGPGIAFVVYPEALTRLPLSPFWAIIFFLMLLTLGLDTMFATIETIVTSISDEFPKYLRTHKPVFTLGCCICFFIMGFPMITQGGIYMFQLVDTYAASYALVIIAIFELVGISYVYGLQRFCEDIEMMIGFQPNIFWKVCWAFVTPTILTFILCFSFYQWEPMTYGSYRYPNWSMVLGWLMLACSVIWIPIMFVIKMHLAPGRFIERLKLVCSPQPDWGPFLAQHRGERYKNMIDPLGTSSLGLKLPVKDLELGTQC

[2] = biological target: T2, glycine transporter-1 (GlyT-1) (Homo sapiens, UniProt P48067); experiment: [14C]glycine uptake assay in JAR cells endogenously expressing GlyT-1 (scintillation proximity); type: cell-based; conditions: JAR cells, [14C]glycine 5 μM, 3 hour incubation; read-out: GlyT-1 IC50
T2 construct: JAR cells (ATCC#HTB-144), which endogenously express GlyT-1; host or cells: JAR human choriocarcinoma cells
T2 sequence (P48067 1-706): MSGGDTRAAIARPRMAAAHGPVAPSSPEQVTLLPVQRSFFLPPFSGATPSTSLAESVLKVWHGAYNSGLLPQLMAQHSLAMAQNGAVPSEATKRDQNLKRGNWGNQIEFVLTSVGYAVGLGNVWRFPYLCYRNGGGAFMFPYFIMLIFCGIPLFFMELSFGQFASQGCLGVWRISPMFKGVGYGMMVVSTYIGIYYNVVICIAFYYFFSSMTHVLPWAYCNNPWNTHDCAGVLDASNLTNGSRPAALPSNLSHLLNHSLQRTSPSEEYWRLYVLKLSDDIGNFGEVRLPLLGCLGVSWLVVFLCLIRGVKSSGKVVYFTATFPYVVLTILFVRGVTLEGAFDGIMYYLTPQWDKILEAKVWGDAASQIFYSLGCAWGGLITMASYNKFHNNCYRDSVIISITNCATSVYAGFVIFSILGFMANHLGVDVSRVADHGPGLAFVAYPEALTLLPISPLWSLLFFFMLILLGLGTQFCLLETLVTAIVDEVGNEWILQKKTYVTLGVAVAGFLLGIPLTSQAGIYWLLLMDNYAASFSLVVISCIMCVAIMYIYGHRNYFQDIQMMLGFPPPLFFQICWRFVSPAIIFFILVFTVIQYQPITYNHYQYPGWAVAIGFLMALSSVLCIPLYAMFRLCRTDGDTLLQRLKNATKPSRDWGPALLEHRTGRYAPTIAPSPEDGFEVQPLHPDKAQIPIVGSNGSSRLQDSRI
In short: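 Human choriocarcinoma JAR cells (endogenous GlyT-1) attached overnight, then pre-incubated 10 min at room temperature with compound in pH 7.4 Hepes uptake buffer containing 5 mM alanine and 0.75% DMSO. Uptake of 5 μM [14C]glycine over 3 h at 37 °C read by scintillation proximity; IC50 from four-parameter fit of nine-point curves.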

Compound	IC50 [1]	IC50 [2]
CCCS(=O)(=O)N1CCN(C2(CNC(=O)c3c(C)cc(F)cc3OC)CCC(F)(F)CC2)CC1 [compound 137, N-((4,4-Difluoro-1-(4-(propylsulfonyl)piperazin-1-yl)cyclohexyl)methyl)-4-fluoro-2-methoxy-6-methylbenzamide Hydrochloride]	> 75000 nM	28 nM
CCCS(=O)(=O)N1CCN(C2(CNC(=O)c3c(OC)cc(F)cc3SC)CCC(F)(F)CC2)CC1 [compound 138, N-((4,4-Difluoro-1-(4-(propylsulfonyl)piperazin-1-yl)cyclohexyl)methyl)-4-fluoro-2-methoxy-6-(methylthio)benzamide Hydrochloride]	> 75000 nM	25 nM
CCCS(=O)(=O)N1CCN(C2(CNC(=O)c3ccccc3Cl)CCC(F)(F)CC2)CC1 [compound 139, 2-Chloro-N-((4,4-difluoro-1-(4-(propylsulfonyl)piperazin-1-yl)cyclohexyl)methyl) benzamide Hydrochloride]	> 75000 nM	54 nM
CCCS(=O)(=O)N1CCN(C2(CNC(=O)c3ccccc3OC(F)(F)F)CCC(F)(F)CC2)CC1 [compound 141, N-((4,4-Difluoro-1-(4-(propylsulfonyl)piperazin-1-yl)cyclohexyl)methyl)-2-(trifluoromethoxy) benzamide Hydrochloride]	> 75000 nM	48 nM
Cn1cnc(S(=O)(=O)N2CCN(C3(CNC(=O)c4ccccc4Cl)CCC(F)(F)CC3)CC2)c1 [compound 160, 2-Chloro-N-((4,4-difluoro-1-(4-(1-methyl-1H-imidazol-4-ylsulfonyl)piperazin-1-yl)cyclohexyl)methyl) benzamide Hydrochloride]	> 75000 nM	9 nM
Cn1cnc(S(=O)(=O)N2CCN(C3(CNC(=O)c4ccccc4OC(F)(F)F)CCC(F)(F)CC3)CC2)c1 [compound 161, N-((4,4-difluoro-1-(4-(1-methyl-1H-imidazol-4-ylsulfonyl)piperazin-1-yl)cyclohexyl)methyl)-2-(trifluoromethoxy) benzamide Hydrochloride]	> 75000 nM	1 nM
Cn1cnc(S(=O)(=O)N2CCN(C3(CNC(=O)c4ccc(F)cc4Cl)CCC(F)(F)CC3)CC2)c1 [compound 166, 2-Chloro-N-((4,4-difluoro-1-(4-(1-methyl-1H-imidazol-4-ylsulfonyl)piperazin-1-yl)cyclohexyl)methyl)-4-fluorobenzamide Hydrochloride]	> 75000 nM	5 nM
Cn1cnc(S(=O)(=O)N2CCN(C3(CNC(=O)c4c(F)cc(F)cc4F)CCC(F)(F)CC3)CC2)c1 [compound 167, N-((4,4-Difluoro-1-(4-(1-methyl-1H-imidazol-4-ylsulfonyl)piperazin-1-yl)cyclohexyl)methyl)-2,4,6-trifluorobenzamide Hydrochloride]	> 75000 nM	11 nM
Cn1cnc(S(=O)(=O)N2CCN(C3(CNC(=O)c4ccccc4C(F)(F)F)CCC(F)(F)CC3)CC2)c1 [compound 176, N-((4,4-Difluoro-1-(4-(1-methyl-1H-imidazol-4-ylsulfonyl)piperazin-1-yl)cyclohexyl)methyl)-2-(trifluoromethyl)benzamide Hydrochloride]	69200 nM	3 nM
Cn1cnc(S(=O)(=O)N2CCN(C3(CNC(=O)c4c(Cl)cccc4C(F)(F)F)CCC(F)(F)CC3)CC2)c1 [compound 185, 2-Chloro-N-((4,4-difluoro-1-(4-(1-methyl-1H-imidazol-4-ylsulfonyl)piperazin-1-yl)cyclohexyl)methyl)-6-(trifluoromethyl)benzamide Hydrochloride]	> 75000 nM	6 nM
O=C(NCC1(N2CCC(S(=O)(=O)CC3CC3)CC2)CCCCC1)c1ccc(Cl)cc1Cl [compound 200, 2,4-Dichloro-N-((1-(4-(cyclopropylmethyl-sulfonyl)piperidin-1-yl)cyclohexyl)methyl) benzamide Hydrochloride]	> 75000 nM	1080 nM

Source: patent publication US9045445B2, “Glycine transporter-1 inhibitors, methods of making them, and uses thereof” (Albany Molecular Research, Inc., priority 2010, dated 2015)
